Measured values: patent US20060069132A1, “Azolecarboxamide herbicides” (priority 2004, published 2006)

Assays:
barnyardgrass [1] = assay: Test B pre-/postemergence herbicide test; assay type: in vivo, Echinochloa crus-galli; conditions: for Plant response rating (0 to 100 scale), Barnyardgrass: 0 is no effect
Procedure, shortened: (§1)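 Test chemicals in a non-phytotoxic solvent mixture with surfactant were applied preemergence to seeded species and postemergence to plants 2-18 cm tall (1- to 4-leaf stage); rice and barnyardgrass were also tested in a flooded paddy at the 2-leaf stage. Visual rating versus controls after 13-15 days in greenhouse, scale 0 (no effect) to 100 (complete control).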

Surinam grass = assay: Test B pre-/postemergence herbicide test; assay type: in vivo, Urochloa decumbens; conditions: for Plant response rating (0 to 100 scale), Surinam Grass: 0 is no effect
Procedure, shortened: (§2)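 Pre: seeds sown, then sprayed. Post: 1–4-leaf plants (2–18 cm) sprayed at the same time. Paddy: flooded, treated at 2-leaf stage. Formulation: non-phytotoxic solvent with surfactant. Greenhouse 13–15 days; visual 0–100 score relative to controls.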

ducksalad = assay: Test B flooded paddy test; assay type: in vivo, Heteranthera limosa; conditions: 1000 g ai/ha, scale 0 to 100 (0 no effect, 100 complete control)
Procedure, shortened: (§3)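 Paddy species grown to the 2-leaf stage under flooding; blackgrass sprayed postemergence at 2–18 cm (1- to 4-leaf stage). Plants kept in a greenhouse for 13 to 15 days, then visually rated against controls on 0 (no effect) to 100 (complete control).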

[2] = test system: small flower umbrella sedge; assay: Test B flooded paddy test; assay type: in vivo, Cyperus difformis; conditions: 1000 g ai/ha, scale 0 to 100 (0 no effect, 100 complete control)
Procedure, shortened: as §3

cocklebur = assay: Test B pre-/postemergence herbicide test; assay type: in vivo, Xanthium strumarium; conditions: for Plant response rating (0 to 100 scale), Cocklebur: 0 is no effect
Procedure, shortened: as §1

corn = assay: Test B pre-/postemergence herbicide test; assay type: in vivo, Zea mays; conditions: for Plant response rating (0 to 100 scale), Corn: 0 is no effect
Procedure, shortened: as §2

pigweed = assay: Test B pre-/postemergence herbicide test; assay type: in vivo, Amaranthus retroflexus; conditions: for Plant response rating (0 to 100 scale), Pigweed: 0 is no effect
Procedure, shortened: as §2

lambsquarters = assay: Test B pre-/postemergence herbicide test; assay type: in vivo, Chenopodium album; conditions: for Plant response rating (0 to 100 scale), Lambsquarters: 0 is no effect
Procedure, shortened: as §2

morningglory = assay: Test B pre-/postemergence herbicide test; assay type: in vivo, Ipomoea coccinea; conditions: for Plant response rating (0 to 100 scale), Morningglory: 0 is no effect
Procedure, shortened: as §1

giant foxtail = assay: Test B pre-/postemergence herbicide test; assay type: in vivo, Setaria faberi; conditions: for Plant response rating (0 to 100 scale), Foxtail, Giant: 0 is no effect
Procedure, shortened: as §2

velvetleaf = assay: Test B pre-/postemergence herbicide test; assay type: in vivo, Abutilon theophrasti; conditions: for Plant response rating (0 to 100 scale), Velvetleaf: 0 is no effect, preemergence
Procedure, shortened: as §2

blackgrass = assay: Test B postemergence herbicide test; assay type: in vivo, Alopecurus myosuroides
Procedure, shortened: as §3

wheat = assay: Test B postemergence herbicide test; assay type: in vivo, Triticum aestivum; design: key to Wheat plant response rating: 0 = no effect, 100 = complete control
Procedure, shortened: (§4)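 Each value is a visual 0–100 response rating taken against controls 13 to 15 days after treatment in the greenhouse. Plants received formulated chemical postemergence at the 1- to 4-leaf stage or, in flooded paddy, at the 2-leaf stage.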

wild oat = assay: Test B postemergence herbicide test; assay type: in vivo, Avena fatua
Procedure, shortened: as §4

barnyardgrass [3] = assay: Test B flooded paddy test; assay type: in vivo, Echinochloa crus-galli; conditions: 1000 g ai/ha, scale 0 to 100 (0 no effect, 100 complete control)
Procedure, shortened: as §3

large crabgrass = assay: Test B pre-/postemergence herbicide test; assay type: in vivo, Digitaria sanguinalis; conditions: for Plant response rating (0 to 100 scale), Crabgrass, Large: 0 is no effect
Procedure, shortened: as §2

rice = assay: Test B flooded paddy test; assay type: in vivo, Oryza sativa; conditions: 1000 g ai/ha, scale 0 to 100 (0 no effect, 100 complete control)
Procedure, shortened: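 Plants grow to 1- to 4-leaf stage (2–18 cm) for postemergence spraying, or to 2-leaf stage for the paddy test. Formulated compound is applied. Greenhouse holding lasts 13–15 days. Response is scored visually relative to controls, 0 no effect to 100 complete control; a dash means no result.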

[4] = 125 g ai/ha, 100 is complete control, preemergence
[5] = 125 g ai/ha, visual rating, scale 0 (no effect) to 100 (complete control), postemergence
[6] = 500 g ai/ha, visual rating, 0 = no effect, 100 = complete control, preemergence
[7] = postemergence, 500 g ai/ha, scale 0 to 100, 0 is no effect, 100 is complete control
[8] = 125 g ai/ha, 100 is complete control
[9] = Postemergence, 500 g ai/ha, scale 0 (no effect) to 100 (complete control)
[10] = postemergence, 125 g ai/ha, scale 0 to 100

CCNC(=O)c1ccc(F)c(NC(=O)c2cn(C(C)(C)C)nc2C)c1 [Compound 345]
Plant response rating (0 to 100 scale), Barnyardgrass (barnyardgrass [1]; [4]): 20
Barnyardgrass plant response rating (barnyardgrass [1]; [5]): 0
Plant response rating, Barnyardgrass (barnyardgrass [1]; [6]): 30
Barnyardgrass plant response rating (barnyardgrass [1]; [7]): 0
Plant response rating (0 to 100 scale), Surinam Grass (Surinam grass; [4]): 20
Surinam Grass plant response rating (Surinam grass; [5]): 0
Plant response rating, Surinam Grass (Surinam grass; [6]): 70
Surinam Grass plant response rating (Surinam grass; [7]): 0
Ducksalad plant response rating (ducksalad): 70
Sedge, Umbrella plant response rating [2]: 80
Plant response rating (0 to 100 scale), Cocklebur (cocklebur; [4]): 0
Cocklebur plant response rating (cocklebur; [5]): 0
Plant response rating, Cocklebur (cocklebur; [6]): 10
Cocklebur plant response rating (cocklebur; [7]): 0
Plant response rating (0 to 100 scale), Corn (corn; [4]): 0
Corn plant response rating (corn; [5]): 0
Plant response rating, Corn (corn; [6]): 10
Corn plant response rating (corn; [7]): 0
Plant response rating (0 to 100 scale), Pigweed (pigweed; [4]): 60
Pigweed plant response rating (pigweed; [5]): 20
Plant response rating, Pigweed (pigweed; [6]): 100
Pigweed plant response rating (pigweed; [7]): 20
Plant response rating (0 to 100 scale), Lambsquarters (lambsquarters; [4]): 70
Lambsquarters plant response rating (lambsquarters; [5]): 20
Plant response rating, Lambsquarters (lambsquarters; [6]): 100
Lambsquarters plant response rating (lambsquarters; [7]): 20
Plant response rating (0 to 100 scale), Morningglory (morningglory; [4]): 20
Morningglory plant response rating (morningglory; [5]): 10
Plant response rating, Morningglory (morningglory; [6]): 50
Morningglory plant response rating (morningglory; [7]): 10
Plant response rating (0 to 100 scale), Foxtail, Giant (giant foxtail; [4]): 10
Foxtail, Giant plant response rating (giant foxtail; [5]): 0
Plant response rating, Foxtail, Giant (giant foxtail; [6]): 30
Foxtail, Giant plant response rating (giant foxtail; [7]): 0
Plant response rating (0 to 100 scale), Velvetleaf (velvetleaf; [8]): 30
Velvetleaf plant response rating (velvetleaf; [5]): 10
Velvetleaf plant response rating (velvetleaf; [7]): 10
Blackgrass plant response rating (blackgrass; [5]): 0
Blackgrass plant response rating (blackgrass; [7]): 0
Wheat plant response rating (wheat; [5]): 0
Wheat plant response rating (wheat; [7]): 0
Oat, Wild plant response rating (wild oat; [5]): 0
Oat, Wild plant response rating (wild oat; [7]): 10
Barnyardgrass plant response rating (barnyardgrass [3]): 30
Plant response rating (0 to 100 scale), Crabgrass, Large (large crabgrass; [4]): 30
Crabgrass, Large plant response rating (large crabgrass; [5]): 0
Plant response rating, Crabgrass, Large (large crabgrass; [6]): 90
Crabgrass, Large plant response rating (large crabgrass; [7]): 0
Rice plant response rating (rice): 40

CCN(CC)C(=O)c1ccnc(NC(=O)c2nn(C(C)(C)C)nc2C)c1 [Compound 425]
Plant response rating (0 to 100 scale), Barnyardgrass (barnyardgrass [1]; [4]): 10
Barnyardgrass plant response rating (barnyardgrass [1]; Postemergence, 125 g ai/ha, scale 0 (no effect) to 100 (complete control)): 10
Barnyardgrass plant response rating (barnyardgrass [1]; [9]): 20
Plant response rating (0 to 100 scale), Surinam Grass (Surinam grass; [4]): 40
Surinam Grass plant response rating (Surinam grass; [9]): 20
Surinam Grass plant response rating (Surinam grass; [10]): 10
Ducksalad plant response rating (ducksalad): 70
Sedge, Umbrella plant response rating [2]: 70
Plant response rating (0 to 100 scale), Cocklebur (cocklebur; [4]): 0
Cocklebur plant response rating (cocklebur; [9]): 20
Cocklebur plant response rating (cocklebur; [10]): 10
Plant response rating (0 to 100 scale), Corn (corn; [4]): 0
Corn plant response rating (corn; [9]): 20
Corn plant response rating (corn; [10]): 10
Plant response rating (0 to 100 scale), Pigweed (pigweed; [4]): 70
Pigweed plant response rating (pigweed; [9]): 70
Pigweed plant response rating (pigweed; [10]): 50
Plant response rating (0 to 100 scale), Lambsquarters (lambsquarters; [4]): 80
Lambsquarters plant response rating (lambsquarters; [9]): 70
Lambsquarters plant response rating (lambsquarters; [10]): 60
Plant response rating (0 to 100 scale), Morningglory (morningglory; [4]): 0
Morningglory plant response rating (morningglory; [9]): 80
Morningglory plant response rating (morningglory; [10]): 70
Plant response rating (0 to 100 scale), Foxtail, Giant (giant foxtail; [4]): 20
Foxtail, Giant plant response rating (giant foxtail; [9]): 30
Foxtail, Giant plant response rating (giant foxtail; [10]): 20
Plant response rating (0 to 100 scale), Velvetleaf (velvetleaf; [8]): 20
Velvetleaf plant response rating (velvetleaf; [9]): 30
Velvetleaf plant response rating (velvetleaf; [10]): 20
Blackgrass plant response rating (blackgrass; [9]): 20
Blackgrass plant response rating (blackgrass; [10]): 0
Wheat plant response rating (wheat; 500 g ai/ha, scale 0 to 100, 0 no effect, 100 complete control, preemergence): 30
Wheat plant response rating (wheat; [9]): 0
Wheat plant response rating (wheat; [10]): 0
Oat, Wild plant response rating (wild oat; [9]): 0
Oat, Wild plant response rating (wild oat; [10]): 0
Barnyardgrass plant response rating (barnyardgrass [3]): 30
Plant response rating (0 to 100 scale), Crabgrass, Large (large crabgrass; [4]): 80
Crabgrass, Large plant response rating (large crabgrass; [9]): 30
Crabgrass, Large plant response rating (large crabgrass; [10]): 20
Rice plant response rating (rice): 20
